Marks after values point to notes of the source that are not given here.
Columns and labels:
[1] = UV-visible absorbance spectroscopy; assay type: physicochemical; settings: 0.1 mM
Method: Subsequently, the analysis was carried out under two distinct conditions: firstly, in DMF, at a final concentration of 0.1 mM; and secondly, in a mixture PBS:DMF (99:1%), at the same final concentration of 0.1 mM. These two experimental setups provided valuable insights into the spectral characteristics of the compounds in both a pure organic solvent and a solvent system closely resembling physiological conditions. The maxima absorption wavelengths are compiled in Table 3. These bands were attributed to transitions within the benzene and pyrone moieties, considered together as a single chromophore. […] Similarly, 7-MC and S-1 to S-6 compounds also absorb in this UV range (λmax = 328–330 nm). […] In the organic solvent, these values are found to be higher compared to those calculated for 4-MUB and 7-MC. Conversely, in PBS, the extinction coefficients for S-glycosides are lower compared to the parent thiol 7-MC. This highlights the profound impact of glycosylation on absorption properties, as well as the importance of solvent choice.
(§1) Both absorbance and fluorescence spectra were measured on a Tecan […] M PLEX 200 Pro plate reader equipped with monochromator allowing a scan from 230 to 1000 nm. All synthesized molecules were initially dissolved in 10 mM DMF and subsequently diluted in freshly prepared PBS (pH = 7.4) to achieve a final concentration of 0.1 mM. The solutions were then transferred to a Corning (Corning, NY, USA) UV-transparent 96-well plate. Absorbance spectra were recorded from 230 to 800 nm. Emission fluorescence spectra were recorded from 320 to 800 nm, under excitation at 280 nm. Excitation fluorescence spectra were recorded from 230 to 380 nm for an emission at 420 nm. All spectra were recorded with a wavelength step size of 2 nm. Data processing was performed with Excel software 2016. Fluorescence spectra are presented as normalized spectra ranging from 0 to 1. The relative quantum yields were calculated according to Equation (1):(1) ΦT=(AR/AT)×(FT/FR)×[…]×ΦR where Φ is the fluorescence quantum yield, A is the absorbance at the excitation wavelength, F is the area under the corrected emission curve, and n is the refractive index of the solvent for the test compound (T) and the reference (R). The 4-MUB value in DMF was used as the reference. The LOD (resp. LOQ) values were determined as the minimal concentration of product S-3 required to yield a fluorescence that was twice greater than (respectively, 5-times that of) the fluorescence noise on a sample containing PBS, using an excitation wavelength of 280 nm and an emission wavelength of 386 nm (Figure S44).

[2] = Fluorescence excitation/emission spectroscopy and relative quantum yield; assay type: physicochemical; settings: 7-MC in presence of 10 mM DTT; for Fluorescence λmax ex: emission at 420 nm; for Fluorescence λmax em: excitation at 280 nm
Method: The values determined were close to those observed for the 4-MUB fluorophore.
as §1, with “All synthesized molecules were initially dissolved in 10 mM DMF and subsequently diluted in freshly prepared PBS (pH = 7.4) to achieve a final concentration of 0.1 mM.” left out

[3] = parameters: method as in doi:10.1016/1010-6030(89)87054-6; settings: DMF; ref [50]; cited from earlier work
HS683 (brain glioma) = test: MTT cell proliferation assay, HS683; assay type: cell-based; settings: Homo sapiens, Hs 683, 72 h incubation, 95% confidence interval in parentheses
Method: (§2) To use these S-glycosidic compounds in cellulo, the potential impact of the glycosidic linkage nature on the anticancer activity was assessed. The S-glycoside derivatives and the 7-MC were tested against four human cancer cell lines and a healthy one, namely A549 (lung carcinoma), HS-683 (glioma cancer), MCF-7 (breast adenocarcinoma), SK-MEL-28 (melanoma skin cancer), and HaCaT (keratinocyte normal skin), using MTT (thiazolyl blue tetrazolium bromide, Sigma-Aldrich, St. Louis, MO, USA) assay, as previously described in the literature. The selected reference drugs were 5-fluorouracil (5-FU) and etoposide.
(§3) Cell proliferation of five distinct cell lines was evaluated using the colorimetric MTT (thiazolyl blue tetrazolium bromide, Sigma) assay. Human keratinocyte normal skin HaCaT was cultivated in DMEM supplemented with 4.5 g/L glucose, 2 mM L-glutamine, and 10% FBS. Cancer cell lines and their respective growth media were obtained from CLS Cell Line Service GmbH (Eppelheim, Germany). Specifically, human skin melanoma SK-MEL-28 and human brain glioma HS683 were cultivated in DMEM with identical supplements as HaCaT cells. The human lung carcinoma cell line A-549 was grown in DMEM/Ham’s F12 (1:1) medium supplemented with 2 mM L-glutamine and 5% FBS. Additionally, human breast adenoma carcinoma MCF-7 cells were sustained in EMEM supplemented with 2 mM L-glutamine, sodium pyruvate, non-essential amino acids (NEAAs), 10 µg/mL insulin human, and 10% FBS. The MTT assay relies on the reduction of the yellow product thiazolyl blue tetrazolium bromide (MTT) to formazan, a purple-blue product, by mitochondrial dehydrogenases in metabolically active cells. The number of living cells after incubation in the presence (or absence, control) of the tested molecules is directly proportional to the blue color, which was measured by spectrophotometry. To perform the assay, cells were initially seeded at a density of 2500 cells/mL in 96-well culture plates (Nunc™ Edge 2.0, Fisher) and allowed to adhere and proliferate over a 24-hour incubation period. Following this, the cells were treated with various concentrations of the tested compounds, which were previously prepared as serial dilutions and dissolved in 0.1% DMSO. These stable solutions guarantee the consistency of experimental conditions over extended periods. Each concentration of the tested compounds underwent triplicate testing (n = 3), and cells were subsequently incubated for 72 h to allow for thorough evaluation. Following this incubation period, MTT reagent (5 mg/mL solution in PBS) was introduced to each well (10% v/v), and cells were further incubated for 4 h. Then, the culture medium was carefully removed, and the resulting blue formazan crystals were dissolved in 100 µL of 100% DMSO. Absorbance readings were taken at 540 nm, referencing a wavelength of 620 nm, using a spectrophotometer. In determining the IC50, the absorbance of serial dilutions of each cell line, treated under identical conditions but without the presence of the tested compounds, was measured.

[4] = system: MCF-7 (breast adenocarcinoma); test: MTT cell proliferation assay, MCF-7; assay type: cell-based; settings: Homo sapiens, MCF7, 72 h incubation, 95% confidence interval in parentheses
Method: as §2, §3

[5] = system: SK-MEL-28 (melanoma skin cancer); test: MTT cell proliferation assay, SK-MEL-28; assay type: cell-based; settings: Homo sapiens, 72 h incubation, 95% confidence interval in parentheses
Method: as §2, §3

[6] = system: HaCaT (keratinocyte normal skin); test: MTT cell proliferation assay, HaCaT; assay type: cell-based; settings: Homo sapiens, 72 h incubation, 95% confidence interval in parentheses
Method: as §2, §3

A-549 (lung carcinoma) = test: MTT cell proliferation assay, A-549; assay type: cell-based, human; settings: Homo sapiens, A549, 72 h, 72 h incubation, 95% confidence interval in parentheses
Method: as §2, with “literature.” for “literature. The selected reference drugs were 5-fluorouracil (5-FU) and etoposide.”
as §3, with “These stable solutions guarantee the consistency of experimental conditions over extended periods.” left out

[7] = DMF, 7-MC in presence of 10 mM DTT

Structure (SMILES)	Absorbance ε (molar absorption coefficient) [1, 7]	Absorbance λmax abs [1, 7]	emax (molar absorption coefficient) ([1]; PBS 1x (pH = 7.4), 7-MC + DTT 10 mM)	Absorbance λmax abs ([1]; PBS (PBS:DMF 99:1, pH 7.4), 7-MC in presence of 10 mM DTT)	Fluorescence λmax ex ([2]; DMF, 0.1 mM)	Fluorescence λmax em ([2]; DMF, 0.1 mM)	Fluorescence λmax ex ([2]; PBS pH 7.4, 0.1 mM)	Fluorescence λmax em ([2]; PBS pH 7.4, 0.1 mM)	Relative quantum yield Φ ([2]; PBS, relative to 4-MUB in DMF)	Quantum yield Φ (reference value) [3]	IC50 (HS683 (brain glioma))	IC50 [4]	IC50 [5]	IC50 [6]	IC50 (A-549 (lung carcinoma))
Cc1cc(=O)oc2cc(O)ccc12 [Compound 4-MUB, 4-methylumbelliferone, reference compound]	17.0 10^3 M^−1 cm^−1	322 nm	20129,15057 cm-1 M-1	324 nm	320 nm	380 nm	333 nm	448 nm	0.293	0.081 ^a					
O=c1[nH]cc(F)c(=O)[nH]1 [Compound 5-FU, 5-fluorouracil, reference compound]											37 µM	4.8 µM	6.6 µM	0.4 µM	
COc1cc([C@@H]2c3cc4c(cc3[C@@H](O[C@@H]3O[C@@H]5CO[C@@H](C)O[C@H]5[C@H](O)[C@H]3O)[C@H]3COC(=O)[C@H]23)OCO4)cc(OC)c1O [Etoposide, etoposide, reference compound]											1.6 µM	3.9 µM	3.2 µM	0.5 µM	1.6 µM
